# Source: US4863748A, “Dietary products and uses comprising methylsulfonylmethane” (priority 1986, dated 1989)
# Where a name gives a salt, the structure may show the parent alone.
# Assays:
# [1] = tested on: pain in the mid-back region; assay: Acute pain, comparison with codeine, urinary calculi, subject three (Example 32); type: in vivo, human; conditions: for pain relief: subject three
# Protocol: Methylsulfonylmethane was compared with codeine for the control of pain in subject three, a person who awakened in the early morning with excruciating pain in the mid-back region, so intense it was difficult to pin-point a specific region. […] Analgesic requirements were 1/2 grain codeine with aspirin every two hours. […] The intense pain returned. The subject was given 1.5 g of methylsulfonylmethane dissolved in 1/2 glass of warm water. At 0.5 hours after taking the methylsulfonylmethane, the pain had essentially disappeared. Methylsulfonylmethane (1.5 g/day) was continued until the afternoon of the third day, when X-ray confirmed that the calculi yet obstructed the ureter. Subject was switched again to codeine with aspirin (1/2 grain×2 hours). […] Methylsulfonylmethane was again administered (1.5 g×4 hours). On day 5 the calculi passed. Recovery was uneventful, requiring neither codeine, methylsulfonylmethane,nor a urinary tract antimicrobial.
# [2] = tested on: arthritis; assay: Canine arthritis and other sources of pain (Example 30); type: in vivo, dog; conditions: prior treatment
# Source text: In each case the methylsulfonylmethane was admixed with the animal's food just prior to feeding.
# This animal, although owned by a veterinarian, had not responded to a variety of therapeutic regimens over the previous 12 months. Methylsulfonylmethane was given to this dog in its food at a level of 1.5 grams b.i.d. X 1 month.
# It was mobile but walked with obvious difficulty and discomfort. The animals was refractory to both cortisone and phenylbutazone.
# The animal had not responded to either cortisone nor phenylbutazone and its condition was deteriorating rapidly. Methylsulfonylmethane was included in its diet at 1 gm/day b.i.d. After one week, the dog appeared to be pain-free.
# [3] = tested on: platelet count; assay: Low platelet count in lupus erythematosus (Example 22); type: in vivo, human; conditions: adult female, after prednisone therapy, before methylsulfonylmethane
# Source text: Methylsulfonylmethane administered orally raised the platelet count of an adult with lupus erythematosus from 84,000 (after prednisone therapy) to 200,000 over a 2-year period (1.5 gm/day in 3 doses).
# [4] = tested on: scarification of the right cheek pouch; assay: Wound healing of the cheek pouch in hamsters (Example 17); type: in vivo; conditions: 0.1 gm/kg methylsulfonylmethane alone or 100 mg ascorbic acid alone in feed; controls day 4 and 5
# Protocol: Four sets of 5 hamsters were subject to scarification of the right cheek pouch, using standard methodology. One week prior to pouch injury, one set was started on a daily regimen of 0.1 gm/kg of methylsulfonylmethane in the diet of standard hamster feed, a second group was given 0.1 gm/kg of methylsulfonylmethane plus 100 mg of ascorbic acid in the same feed, a third group was given only 100 mg of ascorbic acid in the same feed, and the last group, fed only the feed, was held as control. Daily post-scarification examination was made to determine the rate of injury repair.
# [5] = tested on: Trichomonas vaginalis; assay: Treatment of Trichomonas vaginalis infection in subjects (Example 28(a)); type: in vivo, human; conditions: human, in vivo
# Source text: Both had prior courses of therapy for this disorder without adequate response. […]
# One subject was later reinfected by their sexual partner but the reinfection was cleared employing a daily douche of 5% aqueous methylsulfonylmethane for one week.
smiles,measurement,setting,value
CC(=O)Oc1ccccc1C(=O)O [Aspirin],pain relief,[1],ineffective
"CCCCC1C(=O)N(c2ccccc2)N(c2ccccc2)C1=O [phenylbutazone, reference compound]","response, Dog A",[2],not responsive
same,"response, Dog C",[2],refractory
same,"response, Dog D",[2],not responded
"C[C@]12C=CC(=O)C=C1CC[C@@H]1[C@@H]2C(=O)C[C@@]2(C)[C@H]1CC[C@]2(O)C(=O)CO [prednisone, reference compound]",platelet count,[3],"84,000"
COc1ccc2c3c1O[C@H]1[C@@H](O)C=C[C@H]4[C@@H](C2)N(C)CC[C@@]341 [codeine],mental confusion,"[1]; day two, 1/2 grain codeine with aspirin every two hours",mental confusion
same,pain relief,[1],acceptable relief
"O=C1O[C@H]([C@@H](O)CO)C(O)=C1O [vitamin C, ascorbic acid, reference compound]",day on which the 36-hour combination healing result was matched,[4],three
"Cc1ncc([N+](=O)[O-])n1CCO [metronidazole HCL, reference compound]",stomach upset and nausea,[5],side effect experienced by one subject
"C[C@]12CCC(=O)C=C1CC[C@@H]1[C@@H]2C(=O)C[C@@]2(C)[C@H]1CC[C@]2(O)C(=O)CO [cortisone, reference compound]","response, Dog A",[2],not responsive
same,"response, Dog C",[2],refractory
same,"response, Dog D",[2],not responded
